According to patent publication US6825354B2 (Wyeth Holdings Corporation, priority 1999, dated 2004):
pIC50: −log10 of the molar value. Where two headings read alike, the source gives them in different places.

Columns and labels:
[1] = test system: THP-1 cells (soluble TNF-α); assay: Human monocytic THP-1 cell differentiation assay for soluble proteins (THP soluble protein assay); type: cell-based; conditions: negative = less TNF-α; for TNFalpha at 3 uM, THP (percent change): percent change from vehicle positive control; for inhibition at 3 µM: Homo sapiens, THP-1, percent change from vehicle positive control, read-out: TNFalpha at 3 uM, THP (percent change)
From the text: Mitogenic stimulation of THP-1 cells cause differentiation into macrophage like cells with concomitant secretion of tumor necrosis factor (TNF-a) and TNF receptor (TNF-R p75/80 and TNF-R p55/60) and Interleukin-8 (IL-8), among other proteins. […] The release of membrane bound TNF-a and possibly TNF-R p75/80 and TNF-R p55/60, but not IL-8, is mediated by an enzyme called TNF-α converting enzyme or TACE.
THP-1 cells (from ATCC) are a human monocytic cell line which were obtained from the peripheral blood of a person with acute monocytic leukemia They can be grown in culture and differentiated into macrophage like cells by stimulation with mitogens.
Each vial of cells are cultured for about two weeks prior to being used for an assay and then are used for only 4 to 6 weeks to screen compounds.
Cell exposure to DMSO was limited to 0.1% final concentration. […] Compounds can be evaluated for their effect on basal (non-stimulated) shedding of the receptors by replacing the LPS with […] of THP-1 media Plates are placed into an incubator set at 5% CO2 and at 37° C. After 4 hours of incubation, […] of tissue culture supernatant (TCS) is removed for use in an TNF-α ELISA. Following 24 hours of incubation, […] of TCS is removed and used for analysis in TNF-R p75/80, TNF-R p55/60 and IL-8 ELISAs.
In addition, at the 24 hours timepoint, and the cells for each treatment group are collected by resuspension in 500 μl/well of THP-1 media and transferred into a FACS tube. […] The samples are run on a Becton Dickinson FaxCaliber FLOW cytometry machine and the amount of dye taken up by each cell is measured in the high red wavelength (FL3). Only cells with compromised membranes (dead or dying) can take up PI. The percent of live cells is calculated by the number of cells not stained with PI, divided by the total number of cells in the sample. The viability values calculated for the drug treated groups were compared to the viability value calculated for the vehicle treated mitogen stimulated group (“vehicle positive control”) to determine the “percent change from control”. This “percent change from control” value is an indicator of drug toxicity.
The quantity of soluble TNF-α, TNF-R p75/80 and TNF-R p55/60 and IL-8 in the TCS of the ThP-1 cell cultures are obtained with commercially available ELISAs from R&D Systems, by extrapolation from a standard curve generated with kit standards. The number of cells that either take up or exclude PI are measured by the FLOW cytometry machine and visualized by histograms using commercially available Cytologic software for each treatment group including all controls.
Biological variability in the magnitude of the response of THP-1 cell cultures requires that experiments be compared on the basis of percent change from “vehicle positive control” for each drug concentration. Percent change in each soluble protein evaluated from the “vehicle positive control” was calculated for each compound concentration with the following formula: [formula]
For the soluble protein (TNF-a, p75/80, p55/60, IL-8) studies under stimulated conditions, the mean pg/ml of duplicate wells were determined and the results expressed as percent change from “vehicle positive control”. For the soluble protein (p75/80 and p55/60 receptors) studies under non-stimulated conditions, the mean pglml of duplicate wells were determined and the results expressed as percent change from “vehicle positive control” utilizing the following formula: [formula]
IC50 values for each compound are calculated by non-linear regression analysis using customized software utilizing the JUMP statistical package.
For the cell viability studies, the viabilities (PI exclusion) of pooled duplicate wells were determined and the results expressed as % change from “vehicle positive control”.

MMP-13 = MMP-13 (Homo sapiens, UniProt P45452); assay: MMP-13 inhibition, thiopeptide or fluorescent peptide substrate; type: biochemical; conditions: for pIC50: read-out: MMP13 IC50; for inhibition at 10 µM: read-out: MMP13 % @ 10 μM
Procedure: (§1) The enzyme activity is measured by the rate of the color increase. The thiopeptide substrate is made up fresh as a 20 mM stock in 100% DMSO and the DTNB is dissolved in 100% DMSO as a 100 mM stock and stored in the dark at room temperature. Both the substrate and DTNB are diluted together to 1 mM with substrate buffer (50 mM HEPES pH 7.5, 5 mM CaCl2) before use. The stock of enzyme is diluted with buffer (50 mM HEPES, pH 7.5, 5 mM CaC12, 0.02% Brij) to the desired final concentration.
(§2) Alternatively, a fluorescent peptide substrate is used. In this test procedure, the peptide substrate contains a fluorescent group and a quenching group. Upon cleavage of the substrate by an MMP, the fluorescence that is generated is quantitated on the fluorescence plate reader. The assay is run in HCBC assay buffer (50 mM HEPES, pH 7.0, 5 mM Ca^+2, 0.02% Brij, 0.5% Cysteine), with human recombinant MMP-1, MMP-9, or MMP-13. The substrate is dissolved in methanol and stored frozen in 1 mM aliquots. For the assay, substrate and enzymes are diluted in HCBC buffer to the desired concentrations. Compounds are added to the 96 well plate containing enzyme and the reaction is started by the addition of substrate.
(§3) For either the thiopeptide or fluorescent peptide test procedures, the slope of the line is calculated and represents the reaction rate. […] The mean (x±sem) of the control rate is calculated and compared for statistical significance (p<0.05) with drug-treated rates using Dunnett's multiple comparison test.

[2] = target: TNF-α converting enzyme (TACE) (Homo sapiens, UniProt P78536); assay: TACE inhibition, fluorescent peptidyl substrate; type: biochemical; conditions: for IC50: footnote a: IC50 (nM)
TNF-α converting enzyme (TACE), sequence (P78536 215-824): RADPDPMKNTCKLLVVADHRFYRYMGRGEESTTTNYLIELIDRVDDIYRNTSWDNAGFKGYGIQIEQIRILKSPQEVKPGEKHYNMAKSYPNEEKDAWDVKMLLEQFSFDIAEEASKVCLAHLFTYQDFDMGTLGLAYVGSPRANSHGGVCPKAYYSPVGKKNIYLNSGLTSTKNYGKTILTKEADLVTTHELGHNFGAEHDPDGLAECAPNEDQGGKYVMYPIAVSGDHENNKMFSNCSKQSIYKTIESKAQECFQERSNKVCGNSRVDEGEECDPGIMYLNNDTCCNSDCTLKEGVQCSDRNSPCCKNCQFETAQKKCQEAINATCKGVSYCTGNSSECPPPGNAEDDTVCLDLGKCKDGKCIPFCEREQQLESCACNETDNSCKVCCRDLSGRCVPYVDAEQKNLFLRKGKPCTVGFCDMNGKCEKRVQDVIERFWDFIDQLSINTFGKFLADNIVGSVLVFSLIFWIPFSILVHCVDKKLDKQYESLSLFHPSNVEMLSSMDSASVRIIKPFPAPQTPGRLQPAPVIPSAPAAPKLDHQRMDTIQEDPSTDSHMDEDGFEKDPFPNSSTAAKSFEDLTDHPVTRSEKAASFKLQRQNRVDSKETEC
Procedure: […] The reaction is initiated by addition of a fluorescent peptidyl substrate (final concentration 100 μM) to each well and then shaking on a shaker for 5 sec.
The reaction is read (excitation 340 nm, emission 420 nm) for 10 min. and the increase in fluorescence over time is plotted as a linear line. The slope of the line is calculated and represents the reaction rate.
The mean (x±sem) of the control rate is calculated and compared for statistical significance (p<0.05) with drug-treated rates using Dunnett's multiple comparison test.

MMP-1 = target: T1, MMP-1 (Homo sapiens, UniProt P03956); assay: MMP-1 inhibition, thiopeptide or fluorescent peptide substrate; type: biochemical; conditions: Table 1, second part; for inhibition at 10 µM: read-out: MMP1 % @ 10 μM; for pIC50: read-out: MMP1 IC50
T1 sequence (P03956 100-469): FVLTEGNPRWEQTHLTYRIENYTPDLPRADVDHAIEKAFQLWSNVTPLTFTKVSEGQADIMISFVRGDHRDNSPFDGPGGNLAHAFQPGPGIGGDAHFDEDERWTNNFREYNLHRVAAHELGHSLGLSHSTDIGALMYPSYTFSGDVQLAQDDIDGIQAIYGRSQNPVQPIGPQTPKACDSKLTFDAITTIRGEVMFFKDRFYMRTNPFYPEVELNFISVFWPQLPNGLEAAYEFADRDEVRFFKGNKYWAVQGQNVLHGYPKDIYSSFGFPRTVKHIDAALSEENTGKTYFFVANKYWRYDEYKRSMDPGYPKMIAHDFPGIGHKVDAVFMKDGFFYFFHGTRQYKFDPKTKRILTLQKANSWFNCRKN
Procedure: as §1, §2, §3

MMP-9 = MMP-9 (Homo sapiens, UniProt P14780); assay: MMP-9 inhibition, thiopeptide or fluorescent peptide substrate; type: biochemical; conditions: for inhibition at 10 µM: read-out: MMP9 % @ 10 μM; for pIC50: read-out: MMP9 IC50
MMP-9, sequence (P14780 94-707): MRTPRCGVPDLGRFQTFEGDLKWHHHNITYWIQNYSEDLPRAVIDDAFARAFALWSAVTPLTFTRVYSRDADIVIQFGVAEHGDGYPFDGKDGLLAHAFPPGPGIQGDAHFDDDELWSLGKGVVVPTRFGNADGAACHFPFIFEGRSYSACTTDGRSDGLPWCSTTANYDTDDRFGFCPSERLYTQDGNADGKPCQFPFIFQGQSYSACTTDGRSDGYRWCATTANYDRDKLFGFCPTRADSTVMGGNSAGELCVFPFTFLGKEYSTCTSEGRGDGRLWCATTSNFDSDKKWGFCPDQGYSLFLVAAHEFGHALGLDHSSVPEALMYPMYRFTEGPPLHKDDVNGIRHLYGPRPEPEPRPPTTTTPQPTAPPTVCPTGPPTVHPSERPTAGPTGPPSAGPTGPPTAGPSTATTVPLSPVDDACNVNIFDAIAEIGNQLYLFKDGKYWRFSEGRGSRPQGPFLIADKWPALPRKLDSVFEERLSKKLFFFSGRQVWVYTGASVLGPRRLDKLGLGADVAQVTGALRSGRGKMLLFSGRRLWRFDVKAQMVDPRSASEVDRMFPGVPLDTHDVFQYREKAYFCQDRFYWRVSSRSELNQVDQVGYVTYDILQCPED
Procedure: as §1, §2, §3

[3] = Table 1, second part, read-out: TACE IC50

2-{[4-(2-butynyloxy)phenyl]sulfonyl}-2-(4-chlorophenyl)-N-hydroxyacetamide [Example 102]
TNFalpha at 3 uM, THP (percent change) [1]: −10% | MMP13 % @ 10 μM (MMP-13; Table 1, second part): 71% | IC50 [2, 3]: 82 nM | MMP1 % @ 10 μM (MMP-1): 26%

CC#CCOc1ccc([S+]([O-])[C@@H](C(=O)NO)c2ccc(OC)cc2)cc1 (single isomer, unassigned) [Example 77]
inhibition at 3 µM [1]: 12% | inhibition at 10 µM (MMP-9; Table 1, second part): 45.4% | pIC50 (MMP-13; Table 1, second part): 5.43 | pIC50 [2]: 6.70 | inhibition at 10 µM (MMP-1): 17.5%

CC#CCOc1ccc([S+]([O-])[C@@H](C(=O)NO)c2ccc(Br)cc2)cc1 (single isomer, unassigned) [Example 87]
inhibition at 3 µM [1]: -5%

CC#CCOc1ccc([S+]([O-])C(C(=O)NO)c2ccccc2)cc1 (single isomer, unassigned) [Example 113, S-2-{[4-(2-butynyloxy)phenyl]sulfinyl}-2-phenyl-N-hydroxyacetamide]
inhibition at 3 µM [1]: 4% | inhibition at 10 µM (MMP-9; Table 1, second part): 25.7% | inhibition at 10 µM (MMP-13; Table 1, second part): 59% | IC50 [2, 3]: 162 nM | inhibition at 10 µM (MMP-1): 6.2%

CC#CCOc1ccc(S(=O)(=O)C(CCCCCC)C(=O)NO)cc1 (stereo not drawn) [Example 5, 2-(4-But-2-ynyloxy-benzenelsulfonyl)-octanoic Acid Hydroxamide]
pIC50 (MMP-9; Table 1, first part): 5.60 | pIC50 (MMP-13; Table 1, first part): 6.30 | pIC50 ([2]; Table 1, first part, read-out: TACE IC50): 7.13

CC#CCOc1ccc([S+]([O-])C(C(=O)NO)c2cccc3ccccc23)cc1 (stereo not drawn) [Example 93, 2-{[4-(2-Butynyloxy)phenyl]sulfinyl}-N-hydroxy-2-(1-napthyl)acetamide]
TNFalpha at 3 uM, THP (percent change) [1]: 1% | MMP13 % @ 10 μM (MMP-13; Table 1, second part): 17% | TACE % @ 10 μM ([2]; Table 1, second part, footnote a: % @ 10 μM): 15.63% | MMP1 % @ 10 μM (MMP-1): 7%

CC#CCOc1ccc([S+]([O-])C(C(=O)NO)c2ccc(F)cc2)cc1 (stereo not drawn) [Example 96]
inhibition at 3 µM [1]: 12% | inhibition at 10 µM (MMP-9; Table 1, second part): 0% | inhibition at 10 µM (MMP-13; Table 1, second part): 53.4% | IC50 [2, 3]: 148 nM | inhibition at 10 µM (MMP-1): 18.4%

CC#CCOc1ccc(SC(C(=O)NO)c2ccc(OCC)cc2)cc1 (stereo not drawn) [Example 100, 2-{[4-(2-butynyloxy)phenyl]sulfanyl}-N-hydroxy-2-(4-ethoxyphenyl)acetamide]
inhibition at 3 µM [1]: 0%

CC#CCOc1ccc([S+]([O-])C(C(=O)NO)c2ccc(OCC)cc2)cc1 (stereo not drawn) [Example 101, 2-{[4-(2-Butynyloxy)phenyl]sulfinyl}-N-hydroxy-2-(4-ethoxyphenyl)acetamide]
inhibition at 3 µM [1]: -1%

CC#CCOc1ccc(SC(C(=O)NO)c2cccc(Br)c2)cc1 (stereo not drawn) [Example 103, 2-{[4-(2-Butynyloxy)phenyl]sulfanyl}-N-hydroxy-2-(3-bromophenyl)acetamide]
inhibition at 3 µM [1]: -15%

CC#CCOc1ccc([S+]([O-])[C@@H](C(=O)NO)C(C)C)cc1 (stereo partly drawn) [Example 108, R-2-{[4-(2-butynyloxy)phenyl]sulfinyl}-2-isopropyl-N-hydroxyacetamide]
TNFalpha at 3 uM, THP (percent change) [1]: −29% | pIC50 (MMP-9; Table 1, second part): 6.40 | pIC50 (MMP-1): 5.19

CC#CCOc1ccc([S+]([O-])C(C(=O)NO)C(C)C)cc1 (stereo not drawn) [Example 109, S-2-{[4-(2-butynyloxy)phenyl]sulfinyl}-2-isopropyl-N-hydroxyacetamide]
TNFalpha at 3 uM, THP (percent change) [1]: −20% | pIC50 (MMP-9; Table 1, second part): 6.05 | pIC50 (MMP-1): 5.52
